From ChEMBL document CHEMBL4184318, “Identification of Fast-Acting 2,6-Disubstituted Imidazopyridines That Are Efficacious in the in Vivo Humanized Plasmodium falciparum NODscidIL2Rγ null Mouse Model of Malaria” (J Med Chem, 2018)
Values after ≈ are worked out from the molar mass of the structure shown.

Columns and labels:
[1] = Kinetic solubility of the compound in phosphate buffered saline at pH 6.5 after 20 hrs by shake flask method; format: physicochemical; details: read-out: Kinetic_solubility
[2] = Kinetic solubility of the compound in HCl at pH 2 after 20 hrs by shake flask method; format: physicochemical; details: read-out: Kinetic_solubility
[3] = Kinetic solubility of the compound in FaSSIF at pH 6.5 after 20 hrs by shake flask method; format: physicochemical; details: read-out: Kinetic_solubility
[4] = Drug metabolism in iv or po dosed Sprague-Dawley rat plasma assessed as oxidation of pyridine ring by LC-MS/MS method; format: ADME, organism-based; details: in vivo
[5] = Drug metabolism in iv or po dosed Sprague-Dawley rat plasma assessed as oxidation of phenyl ring by LC-MS/MS method; format: ADME, organism-based; details: in vivo

| solubility kinetic at 20 h [1] [µM] | solubility kinetic at 20 h [2] [µM] | solubility kinetic at 20 h [3] [µM] | Drug metabolism [4] | Drug metabolism [5] | SMILES |
| --- | --- | --- | --- | --- | --- |
| < 5 | 155 (≈ 55.2 µg/mL) |  |  |  | FC(F)(F)c1cccc(-c2nc3cnc(Nc4cnccn4)cc3[nH]2)c1 |
| < 5 | 26 (≈ 9.65 µg/mL) |  |  |  | FC(F)(F)Oc1ccc(-c2nc3cnc(Nc4ccccn4)cc3[nH]2)cc1 |
| < 5 | 161 (≈ 57.4 µg/mL) |  |  |  | FC(F)(F)c1cccc(-c2nc3cnc(Nc4cccnn4)cc3[nH]2)c1 |
| 7 (≈ 2.57 µg/mL) | 11 (≈ 4.04 µg/mL) | 9 (≈ 3.31 µg/mL) |  |  | O=C(O)c1ccc(Nc2cc3[nH]c(-c4ccc(F)c(F)c4)nc3cn2)nc1 |
| < 5 | 180 (≈ 64.1 µg/mL) | 50 to 100 (≈ 17.8 to 35.6 µg/mL) |  |  | FC(F)(F)c1ccc(-c2nc3cnc(Nc4ccccn4)cc3[nH]2)cn1 |
| 155 (≈ 56.3 µg/mL) | 196 (≈ 71.2 µg/mL) | 168 (≈ 61 µg/mL) |  |  | FC(F)(F)c1ccc(Nc2cc3[nH]c(C4CCOCC4)nc3cn2)nc1 |
| 168 (≈ 78.7 µg/mL) | 200 (≈ 93.7 µg/mL) | 161 (≈ 75.4 µg/mL) |  |  | O=C(c1ccc(Nc2cc3[nH]c(-c4ccc(C(F)(F)F)nc4)nc3cn2)nc1)N1CCNCC1 |
| < 5 | < 5 | < 5 |  |  | NC(=O)c1ccc(Nc2cc3[nH]c(-c4cccc(C(F)(F)F)c4)nc3cn2)nc1 |
| 10 (≈ 3.55 µg/mL) | 200 (≈ 71.1 µg/mL) |  |  |  | FC(F)(F)c1cccc(-c2nc3cnc(Nc4ccncc4)cc3[nH]2)c1 |
| 118 (≈ 43.6 µg/mL) | 181 (≈ 66.8 µg/mL) | 161 (≈ 59.5 µg/mL) |  |  | FC1(F)CC(c2nc3cnc(Nc4ccc(C(F)(F)F)cn4)cc3[nH]2)C1 |
| < 5 | 116 (≈ 44.7 µg/mL) |  |  |  | COc1cccnc1Nc1cc2[nH]c(-c3cccc(C(F)(F)F)c3)nc2cn1 |
| < 5 | < 5 | 50 to 100 (≈ 19.6 to 39.1 µg/mL) |  |  | Fc1ccc(-c2nc3cnc(Nc4cc(C(F)(F)F)ccn4)cc3[nH]2)cc1F |
|  | 190 (≈ 86.2 µg/mL) | < 5 |  |  | CN1CCN(c2ccc(Nc3cc4[nH]c(-c5cccc(C(F)(F)F)c5)nc4cn3)nc2)CC1 |
| 33 (≈ 15.5 µg/mL) | 200 (≈ 93.9 µg/mL) | 58 (≈ 27.2 µg/mL) |  |  | O=C(c1ccc(Nc2cc3[nH]c(-c4ccc(C(F)(F)F)nc4)nc3cn2)nc1)N1CCOCC1 |
| < 5 | 155 (≈ 55.2 µg/mL) |  |  |  | FC(F)(F)c1cccc(-c2nc3cnc(Nc4ncccn4)cc3[nH]2)c1 |
| < 5 | 85 (≈ 32.8 µg/mL) |  |  |  | COc1cccc(Nc2cc3[nH]c(-c4cccc(C(F)(F)F)c4)nc3cn2)n1 |
| < 5 | 51 (≈ 21.6 µg/mL) | 50 to 100 (≈ 21.2 to 42.3 µg/mL) |  |  | FC(F)(F)c1cccc(-c2nc3cnc(Nc4cccc(C(F)(F)F)n4)cc3[nH]2)c1 |
| 12 (≈ 4.97 µg/mL) | 182 (≈ 75.4 µg/mL) | 16 (≈ 6.63 µg/mL) |  |  | COC(=O)c1ccc(Nc2cc3[nH]c(-c4ccc(C(F)(F)F)nc4)nc3cn2)nc1 |
| < 5 | 7 (≈ 2.61 µg/mL) | 50 to 100 (≈ 18.7 to 37.3 µg/mL) |  |  | Fc1ccc(-c2nc3cnc(Nc4ccccn4)cc3[nH]2)cc1C(F)(F)F |
| < 5 | < 5 |  |  |  | COc1ccnc(Nc2cc3[nH]c(-c4cccc(C(F)(F)F)c4)nc3cn2)c1 |
| < 5 | < 5 | 50 to 100 (≈ 18.7 to 37.3 µg/mL) |  |  | Fc1ccc(Nc2cc3[nH]c(-c4cccc(C(F)(F)F)c4)nc3cn2)nc1 |
| < 5 | < 5 | 50 to 100 (≈ 21.2 to 42.3 µg/mL) | Metabolite_Detected | Metabolite_Notdetected | FC(F)(F)c1ccc(Nc2cc3[nH]c(-c4cccc(C(F)(F)F)c4)nc3cn2)nc1 |
| 170 (≈ 59 µg/mL) | 200 (≈ 69.5 µg/mL) | 170 (≈ 59 µg/mL) |  |  | Fc1ccc(Nc2cc3[nH]c(C4CCC(F)(F)CC4)nc3cn2)nc1 |
| < 5 | 99 (≈ 43.5 µg/mL) | < 5 |  |  | O=C(NC1CC1)c1ccc(Nc2cc3[nH]c(-c4ccc(C(F)(F)F)nc4)nc3cn2)nc1 |

| solubility kinetic at 20 h [1] [µM] | solubility kinetic at 20 h [2] [µM] | solubility kinetic at 20 h [3] [µM] | Drug metabolism [4] | Drug metabolism [5] | SMILES |
| --- | --- | --- | --- | --- | --- |
| < 5 | 87 (≈ 38.3 µg/mL) | 35 (≈ 15.4 µg/mL) |  |  | FC(F)(F)c1cccc(-c2nc3cnc(Nc4ccc(N5CCOCC5)cn4)cc3[nH]2)c1 |
| 6 (≈ 2.4 µg/mL) | < 5 | 6 (≈ 2.4 µg/mL) |  |  | O=C(O)c1ccc(Nc2cc3[nH]c(-c4cccc(C(F)(F)F)c4)nc3cn2)nc1 |
| < 5 | 6 (≈ 2.35 µg/mL) | 50 to 100 (≈ 19.6 to 39.1 µg/mL) |  |  | Fc1ccc(-c2nc3cnc(Nc4ccc(C(F)(F)F)cn4)cc3[nH]2)cc1F |
| < 5 | < 5 | < 5 |  |  | FC(F)(F)c1cccc(-c2nc3cnc(Nc4cc(-c5nnn[nH]5)ccn4)cc3[nH]2)c1 |
| < 5 | 200 (≈ 85.9 µg/mL) | 104 (≈ 44.7 µg/mL) |  |  | FC(F)(F)c1ccc(Nc2cc3[nH]c([C@H]4CC[C@H](C(F)(F)F)CC4)nc3cn2)nc1 |
| < 5 | 125 (≈ 40.4 µg/mL) | 50 to 100 (≈ 16.2 to 32.3 µg/mL) |  |  | Fc1ccc(-c2nc3cnc(Nc4ccccn4)cc3[nH]2)cc1F |
| 188 (≈ 62.7 µg/mL) | 200 (≈ 66.7 µg/mL) | 179 (≈ 59.7 µg/mL) |  |  | CC1(c2nc3cnc(Nc4ccc(C(F)(F)F)cn4)cc3[nH]2)CC1 |
| 120 (≈ 46 µg/mL) | 185 (≈ 70.9 µg/mL) | 163 (≈ 62.5 µg/mL) |  |  | FC1(F)CCC(c2nc3cnc(Nc4ccc(C(F)(F)F)cn4)cc3[nH]2)C1 (configuration not stated) |
| < 5 | < 5 | < 5 |  |  | O=C(O)c1ccnc(Nc2cc3[nH]c(-c4ccc(C(F)(F)F)nc4)nc3cn2)c1 |
| < 5 | 42 (≈ 14.3 µg/mL) | 50 to 100 (≈ 17.1 to 34.1 µg/mL) | Metabolite_Detected | Metabolite_Notdetected | Fc1ccc(Nc2cc3[nH]c(-c4ccc(F)c(F)c4)nc3cn2)nc1 |
| < 5 | < 5 | 50 to 100 (≈ 19.6 to 39.1 µg/mL) |  |  | Fc1cnc(Nc2cc3[nH]c(-c4cccc(C(F)(F)F)c4)nc3cn2)c(F)c1 |
| < 5 | 8 (≈ 3.2 µg/mL) | < 5 |  |  | O=C(O)c1ccc(Nc2cc3[nH]c(-c4ccc(C(F)(F)F)nc4)nc3cn2)nc1 |
| < 5 | < 5 |  |  |  | COc1ccc(Nc2cc3[nH]c(-c4cccc(C(F)(F)F)c4)nc3cn2)nc1 |
| 118 (≈ 39.3 µg/mL) | 186 (≈ 62 µg/mL) | 156 (≈ 52 µg/mL) |  |  | FC(F)(F)c1ccc(Nc2cc3[nH]c(CC4CC4)nc3cn2)nc1 |
| < 5 | 164 (≈ 70.3 µg/mL) | 127 (≈ 54.4 µg/mL) |  |  | CCOC(=O)c1ccc(Nc2cc3[nH]c(-c4ccc(C(F)(F)F)nc4)nc3cn2)nc1 |
| < 5 | < 5 | < 5 |  |  | FC(F)(F)c1cccc(-c2nc3cnc(Nc4ccc(-c5nnn[nH]5)cn4)cc3[nH]2)c1 |
| < 5 | < 5 | 60 (≈ 24 µg/mL) |  |  | O=C(O)c1ccnc(Nc2cc3[nH]c(-c4cccc(C(F)(F)F)c4)nc3cn2)c1 |
| < 5 | 170 (≈ 70.3 µg/mL) | < 5 |  |  | CNC(=O)c1ccc(Nc2cc3[nH]c(-c4ccc(C(F)(F)F)nc4)nc3cn2)nc1 |
| < 5 | 166 (≈ 56.7 µg/mL) | 50 to 100 (≈ 17.1 to 34.1 µg/mL) |  |  | Fc1ccnc(Nc2cc3[nH]c(-c4ccc(F)c(F)c4)nc3cn2)c1 |
| < 5 | 200 (≈ 71.3 µg/mL) |  |  |  | FC(F)(F)c1cccc(-c2nc3cnc(Nc4ccncn4)cc3[nH]2)c1 |
| < 5 | < 5 | 50 to 100 (≈ 19 to 38 µg/mL) |  |  | N#Cc1ccc(Nc2cc3[nH]c(-c4cccc(C(F)(F)F)c4)nc3cn2)nc1 |
| 166 (≈ 58 µg/mL) | 200 (≈ 69.9 µg/mL) | 180 (≈ 62.9 µg/mL) |  |  | FC(F)(F)c1ccc(Nc2cc3[nH]c(C4CCOC4)nc3cn2)nc1 (configuration not stated) |
| < 5 | 196 (≈ 88.9 µg/mL) | < 5 |  |  | O=C(c1ccc(Nc2cc3[nH]c(-c4ccc(C(F)(F)F)nc4)nc3cn2)nc1)N1CCCC1 |
| < 5 | 198 (≈ 63.2 µg/mL) | 123 (≈ 39.3 µg/mL) |  |  | FC(F)(F)c1ccc(Nc2cc3[nH]c(C4CC4)nc3cn2)nc1 |
